1 compound from patent US6514709B1, “High throughput screening by measurement of intracellular calcium levels” (Merck & Co., Inc., priority 2000, dated 2003) can be followed below.

Assay [1] has as its target T1, endogenous muscarinic receptor (Homo sapiens, UniProt P20309).
T1 construct: stimulated an endogenous muscarinic receptor; endogenous in cells; host or cells: parental HEK293 apoaequorin cells (293AEQ17 / HEK-AEQ17)
Description: Fluo-4 fluorescence calcium response in HEK-AEQ17 cells (VIPR). The note with it: 3 μM BAPTA-AM, muscimol (10 μM). The format is cell-based. The method, then:
The VIPR instrument was used to add agonist (in 100 μl enriched-PBS) after recording a 10 sec. baseline and the fluorescence was measured for up to 300 sec.
Muscimol stimulated an endogenous muscarinic receptor (Moriya, H., Takagi, Y., Nakanishi, T., Hayashi, M., Tani, T., and Hirotsu, I. (1999) Affinity profiles of various muscarinic antagonists for cloned human muscarinic acetylcholine receptor (MACHR) subtypes and MACHRS in rat heart and submandibular gland. Life Sciences 25 2351-2358; Caulfield, M. P. (1993) Muscarinic receptors-characterization, coupling and function. Pharmac. Ther. 58, 319-379)in HEK-AEQ17 cells which gave a robust fluorescence signal when measured with fluo-4 using the VIPR. The kinetics of this calcium transient was different from that measured for either the VR1 or hGHSR1a calcium transient. Activation with muscimol (10 μM) caused a fast transient response, followed by a slower response (FIG. 9A). The fast transient response was very sensitive to BAPTA, and was eliminated by low levels of the chelator (3 μM BAPTA-AM), but a fluorescence signal could be detected under these conditions that was stable for at least 3 minutes. At a higher BAPTA concentration (10 μM BAPTA-AM), the increase in fluorescence was very slow and had not yet stabilized even after 3 minutes.

Assay [2] concerns the target T2, rat VR1 capsaicin receptor (Rattus norvegicus, UniProt O35433).
T2 construct: expressed in transfected cells
Description: Aequorin luminescence in VR1 cells (WALLAC MICROBETA JET). The format is cell-based. The protocol:
Parental HEK293 cell lines expressing apoaequorin (293AEQ17 cells) were used to develop stable clonal cell lines expressing the rat VR1 capsaicin receptor. The VR1 293AEQ17 were maintained on growth media containing DMEM (GIBCOBRL, high glucose, with L-glutamine, with 110 mg/L sodium pyruvate, with pyridoxine HCl), 25 mM HEPES (GIBCOBRL, 1M stock), 0.5 mg/mL geneticin (GIBCOBRL, 50 mg/mL stock), 1 μg/mL puromycin (CLONTECH), and 10% fetal bovine serum (GEMINI BIO-PRODUCTS, heat inactivated) at 37° C., 10% CO^2.
Cells were grown to 80-95% confluence in tissue culture flasks (T-225, Corning) and harvested by trypsinization (Trypsin/EDTA, GIBCOBRL). Cells were dispensed (about 1×10^5 cells/0.2 ml/well) into 96-well white clear-bottom BIOCOAT poly-D-lysine plates (BECTON DICKENSON, Bedford, Mass.) in growth media and incubated overnight at 37° C. in a humidified incubator at 10% CO^2. Cells were charged with the aequorin substrate, coelenterazine h (MOLECULAR PROBES, #C-6780), by removing the growth media and incubating the cells with 75 μl of charge buffer (DMEM GIBCOBRL #12320-032; 0.1% FBS GEMINI BIO-PRODUCTS, Inc. #100-107;5 μM coelenterazine h; 30 μM reduced glutathione) for 2 hours at 37° C., 10% CO^2. The charge buffer was then removed and the cells were washed twice with 100 μl of enriched-PBS (pH 7.2) and then incubated with 100 μl of enriched-PBS supplemented with 0-30 μM BAPTA-AM for 30-120 min at 37° C., 10% CO^2. The cells were then washed and loaded with […] of enriched-PBS with or without the indicated antagonist. The calcium response was initiated by addition of 100 μl of the indicated concentration of capsaicin (SIGMA #M2028) to the wells by a WALLAC MICROBETA JET. In order to obtain more consistent kinetics, the Jet was set to simultaneously read only six wells per determination.
For these experiments, the kinetics of the flash luminescence were followed using a WALLAC MICROBETA JET luminometer that injects reagent and records light emission from six wells of a 96-well plate simultaneously.

T2 sequence (O35433 whole entry): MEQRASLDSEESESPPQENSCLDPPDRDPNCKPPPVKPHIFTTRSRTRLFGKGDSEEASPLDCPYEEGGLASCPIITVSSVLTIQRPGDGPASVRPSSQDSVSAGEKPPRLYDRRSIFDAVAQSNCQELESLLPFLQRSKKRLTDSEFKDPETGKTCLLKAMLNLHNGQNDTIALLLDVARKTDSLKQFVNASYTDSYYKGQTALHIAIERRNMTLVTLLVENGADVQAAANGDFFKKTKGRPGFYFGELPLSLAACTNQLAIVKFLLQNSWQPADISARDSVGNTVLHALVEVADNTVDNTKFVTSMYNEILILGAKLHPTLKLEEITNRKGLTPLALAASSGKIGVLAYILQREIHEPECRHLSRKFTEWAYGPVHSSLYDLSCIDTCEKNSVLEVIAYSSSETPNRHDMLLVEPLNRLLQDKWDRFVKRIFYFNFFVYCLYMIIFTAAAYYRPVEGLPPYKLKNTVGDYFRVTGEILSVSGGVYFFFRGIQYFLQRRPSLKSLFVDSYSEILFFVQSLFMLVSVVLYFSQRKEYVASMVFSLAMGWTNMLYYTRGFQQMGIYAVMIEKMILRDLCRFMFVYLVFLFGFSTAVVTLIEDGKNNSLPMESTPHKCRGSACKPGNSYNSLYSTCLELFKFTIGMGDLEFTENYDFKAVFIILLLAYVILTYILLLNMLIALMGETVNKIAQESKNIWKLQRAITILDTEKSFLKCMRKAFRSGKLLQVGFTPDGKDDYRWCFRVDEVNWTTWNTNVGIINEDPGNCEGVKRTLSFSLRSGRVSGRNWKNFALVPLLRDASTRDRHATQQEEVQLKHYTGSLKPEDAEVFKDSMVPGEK
T1 sequence (P20309 whole entry): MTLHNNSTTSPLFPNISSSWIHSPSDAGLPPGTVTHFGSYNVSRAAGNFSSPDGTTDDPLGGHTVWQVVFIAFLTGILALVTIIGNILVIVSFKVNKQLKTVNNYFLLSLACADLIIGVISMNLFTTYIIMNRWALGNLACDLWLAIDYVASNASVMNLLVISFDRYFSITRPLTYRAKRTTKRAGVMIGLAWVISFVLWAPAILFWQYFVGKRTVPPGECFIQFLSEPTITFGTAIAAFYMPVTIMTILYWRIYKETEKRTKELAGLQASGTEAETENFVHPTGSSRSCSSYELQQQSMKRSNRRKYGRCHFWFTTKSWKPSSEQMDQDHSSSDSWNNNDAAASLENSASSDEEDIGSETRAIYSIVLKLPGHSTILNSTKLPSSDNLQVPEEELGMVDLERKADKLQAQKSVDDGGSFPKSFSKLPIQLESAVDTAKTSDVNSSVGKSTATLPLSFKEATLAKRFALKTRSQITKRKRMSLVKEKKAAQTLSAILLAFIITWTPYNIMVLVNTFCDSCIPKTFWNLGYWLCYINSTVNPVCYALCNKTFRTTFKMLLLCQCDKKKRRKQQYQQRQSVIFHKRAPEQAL

With `CC(=O)OCOC(=O)CN(CC(=O)OCOC(C)=O)c1ccccc1OCCOc1ccccc1N(CC(=O)OCOC(C)=O)CC(=O)OCOC(C)=O` [BAPTA-AM, 1,2-bis(o-aminophenoxy)ethane-N,N,N′,N′-tetraacetic acid tetra(acetoxymethyl)ester], in assay [1], the “duration of stable fluorescence signal” value is “at least 3 minutes” and the “effect on fast transient response” value is “eliminated”. Besides, the “total signal at a given agonist concentration” value in assay [2] (0 μM to 30 μM BAPTA-AM) is given as “did not significantly vary”. Further, the “time to peak response” value in assay [2] (30 μM BAPTA-AM, 0.5 μM capsaicin) was found to be 10 s. Also, in assay [2] (BAPTA-AM 0-30 μM, 50 nM capsaicin, maximum time recorded), the “duration of extended luminescence signal” value is “up to 3 minutes”. For the same compound, the “time of maximum luminescence response” value in assay [2] (increasing BAPTA-AM 0-30 μM, 50 nM capsaicin) was 30 s.
